In the supplement of paper PMC5303821, “Major sulfonate transporter Soa1 in Saccharomyces cerevisiae and considerable substrate diversity in its fungal family” (Nature Communications, 2017):

Columns and labels:
Conditions in all cases: sulfur source concentration 200 µM; S. cerevisiae S288C/BY sul1Δ sul2Δ soa1Δ with transporter ortholog inserted at SOA1 locus; sulfur-free B medium, 4% glucose, pH 6.5, sole sulfur source
[1] = test system: Metarhizium robertsii_XP_007822519; assay: lag phase before growth; higher = slower start of growth
[2] = test system: Ogataea parapolymorpha_XP_013935289; assay: as above
[3] = test system: Saccharomyces cerevisiae_SOA1; assay: as above
[4] = test system: Saccharomyces eubayanus_SOA1; assay: as above
[5] = test system: Saccharomyces uvarum_SOA1; assay: as above
[6] = test system: Saccharomyces uvarum_SOA2; assay: as above
[7] = test system: Aspergillus nidulans_XP_660670; assay: maximal culture density with compound as sole sulfur source (OD600); higher = better growth
[8] = test system: Aspergillus nidulans_XP_661711; assay: as above
[9] = test system: Aspergillus nidulans_XP_681611; assay: as above
[10] = test system: Fusarium oxysporum_ENH65823; assay: as above
[11] = test system: Metarhizium robertsii_XP_007822519; assay: as above
[12] = test system: Ogataea parapolymorpha_XP_013935289; assay: as above
[13] = test system: Saccharomyces eubayanus_SOA1; assay: as above
[14] = test system: Saccharomyces uvarum_SOA1; assay: as above
[15] = test system: Aspergillus nidulans (IAM 2006)_astA; assay: maximal growth rate with compound as sole sulfur source (OD600 per h); higher = better growth / uptake of the sulfur source
[16] = test system: Aspergillus nidulans_CBF74694; assay: as above
[17] = test system: Aspergillus nidulans_CBF80346; assay: as above
[18] = test system: Aspergillus nidulans_XP_660563; assay: as above
[19] = test system: Aspergillus nidulans_XP_660670; assay: as above
[20] = test system: Aspergillus nidulans_XP_661711; assay: as above
[21] = test system: Aspergillus nidulans_XP_661733; assay: as above
[22] = test system: Aspergillus nidulans_XP_681611; assay: as above
[23] = test system: Fusarium oxysporum_ENH65823; assay: as above
[24] = test system: Metarhizium robertsii_XP_007821441; assay: as above
[25] = test system: Metarhizium robertsii_XP_007822519; assay: as above
[26] = test system: Metarhizium robertsii_XP_007823832; assay: as above
[27] = test system: Ogataea parapolymorpha_XP_013932458; assay: as above
[28] = test system: Ogataea parapolymorpha_XP_013935289; assay: as above
[29] = test system: Ogataea parapolymorpha_XP_013936897; assay: as above
[30] = test system: Saccharomyces cerevisiae_SOA1; assay: as above
[31] = test system: Saccharomyces eubayanus_SOA1; assay: as above
[32] = test system: Saccharomyces eubayanus_SOA2; assay: as above
[33] = test system: Saccharomyces uvarum_SOA1; assay: as above
[34] = test system: Saccharomyces uvarum_SOA2; assay: as above
soa1 del = assay: as above

## O=S(O)O [sulfite]
[1]
  lag phase before growth: 0.981 h
[2]
  lag phase before growth: 5.63 h
[3]
  lag phase before growth: 6.67 h
[4]
  lag phase before growth: 6.97 h
[5]
  lag phase before growth: 5.95 h
[6]
  lag phase before growth: 11 h
[7]
  maximal culture density: 0.243
[8]
  maximal culture density: 0.244
[9]
  maximal culture density: 0.308
[10]
  maximal culture density: 0.256
[11]
  maximal culture density: 1
[12]
  maximal culture density: 1.61
[13]
  maximal culture density: 1.58
[14]
  maximal culture density: 1.61
[15]
  maximal growth rate: 0.104
[16]
  maximal growth rate: 0.00286
[17]
  maximal growth rate: 0.00484
[18]
  maximal growth rate: 0.00646
[19]
  maximal growth rate: 0.00402
[20]
  maximal growth rate: 0.004
[21]
  maximal growth rate: 0.0047
[22]
  maximal growth rate: 0.00588
[23]
  maximal growth rate: 0.00381
[24]
  maximal growth rate: 0.00339
[25]
  maximal growth rate: 0.0114
[26]
  maximal growth rate: 0.0855
[27]
  maximal growth rate: 0.0051
[28]
  maximal growth rate: 0.0989
[29]
  maximal growth rate: 0.00463
[30]
  maximal growth rate: 0.12
[31]
  maximal growth rate: 0.0839
[32]
  maximal growth rate: 0.00564
[33]
  maximal growth rate: 0.0915
[34]
  maximal growth rate: 0.0556
soa1 del
  maximal growth rate: 0.00378
